Measurements from US11912693B2, “Compounds for modulating S1P1 activity and methods of using the same” (TREVENA, INC., priority 2017, dated 2024).
One block for each compound: values may come before it.

Columns and labels:
[1] = biological target: T1, human sphingosine-1-phosphate receptor 1 (S1P1) (Homo sapiens (Human), UniProt P21453); test: β-Arrestin2 recruitment assay (PathHunter), S1P1 CHO-K1 cells; assay type: cell-based; conditions: for Emax: CHO-K1, efficacy (SPAN) normalized to fingolimod, read-out: hS1P1 B-arrestin2 SPAN; for hS1P1 B-arrestin2 pEC50: β-arrestin2 recruitment, S1P1 CHO-K1 cells
In short: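 Enzyme-fragment complementation read-out: agonist-driven β-arrestin2 binding to ProLink-tagged human S1P1 in stable CHO-K1 cells restores β-galactosidase, measured 1 h at room temperature after a 60 min 37° C. compound incubation. Potency as pEC50, efficacy relative to fingolimod (SPAN).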
Target sequence in this assay (P21453 whole entry, looked up, the tested form may be a part): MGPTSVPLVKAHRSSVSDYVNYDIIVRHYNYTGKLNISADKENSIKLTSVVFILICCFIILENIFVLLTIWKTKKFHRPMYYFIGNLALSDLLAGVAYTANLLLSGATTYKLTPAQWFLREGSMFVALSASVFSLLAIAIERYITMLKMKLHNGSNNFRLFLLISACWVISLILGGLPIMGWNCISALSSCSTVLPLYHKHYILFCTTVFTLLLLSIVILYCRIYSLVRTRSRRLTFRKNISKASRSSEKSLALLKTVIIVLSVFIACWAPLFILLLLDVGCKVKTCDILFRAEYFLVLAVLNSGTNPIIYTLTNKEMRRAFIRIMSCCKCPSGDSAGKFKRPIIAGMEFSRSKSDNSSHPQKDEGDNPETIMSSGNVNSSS
Target sequence in this assay (P32121 whole entry partner, looked up, the tested form may be a part): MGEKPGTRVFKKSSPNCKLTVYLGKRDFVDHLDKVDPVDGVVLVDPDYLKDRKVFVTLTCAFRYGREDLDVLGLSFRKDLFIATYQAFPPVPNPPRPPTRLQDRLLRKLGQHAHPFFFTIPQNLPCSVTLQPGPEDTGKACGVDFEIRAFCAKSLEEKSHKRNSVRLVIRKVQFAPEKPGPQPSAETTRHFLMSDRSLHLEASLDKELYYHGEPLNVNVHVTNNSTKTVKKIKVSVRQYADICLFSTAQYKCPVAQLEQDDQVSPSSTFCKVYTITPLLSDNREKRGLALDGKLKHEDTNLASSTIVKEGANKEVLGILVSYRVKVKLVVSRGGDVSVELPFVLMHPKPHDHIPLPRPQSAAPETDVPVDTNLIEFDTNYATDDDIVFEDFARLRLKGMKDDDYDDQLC

[2] = biological target: T1, human sphingosine-1-phosphate receptor 1 (S1P1); test: Inhibition of cAMP production (HTRF cAMP HiRange), S1P1 CHO-K1 cells; assay type: cell-based; conditions: for Emax: CHO-K1, efficacy (SPAN) normalized to fingolimod, read-out: hS1P1 cAMP SPAN; for hS1P1 cAMP pEC50: inhibition of cAMP production, S1P1 CHO-K1 cells
In short: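 CHO-K1 cells stably co-expressing human S1P1 (C-terminal Prolink tag) and EA-β-arrestin2 were grown in AssayComplete Media 6 at 37° C. and 5% CO2, plated, and incubated overnight. Agonist-driven inhibition of intracellular cAMP was read by TR-FRET with the HTRF cAMP HiRange kit on a PheraStar reader. Potency is pEC50, and efficacy (SPAN) is normalized to fingolimod.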
Target sequence in this assay (P21453 whole entry, looked up, the tested form may be a part): as the sequence (P21453 whole entry, looked up, the tested form may be a part) above

SMILES: CC1(C)CC(=O)c2cc(-c3nc(-c4cccnc4)no3)ccc2O1 [Compound 274, 2,2-dimethyl-6-[3-(pyridin-3-yl)-1,2,4-oxadiazol-5-yl]-3,4-dihydro-2H-1-benzopyran-4-one]
- Emax [1]: < 75%
- hS1P1 B-arrestin2 pEC50 [1]: >5
- Emax [2]: > 75%
- hS1P1 cAMP pEC50 [2]: <6.5

SMILES: COc1ccc(-c2nc(-c3ccc4c(c3)nnn4C3CCCC3)no2)cc1OC [Compound 275, 3-(1-cyclopentyl-1H-benzo[d][1,2,3]triazol-5-yl)-5-(3,4-dimethoxyphenyl)-1,2,4-oxadiazole]
- Emax [1]: < 75%
- hS1P1 B-arrestin2 pEC50 [1]: <5
- Emax [2]: < 75%
- hS1P1 cAMP pEC50 [2]: <6.5

SMILES: O=C1CC2(CCCCC2)Oc2ccc(-c3nc(-c4ccncc4)no3)cc21 [Compound 280, 6-[3-(pyridin-4-yl)-1,2,4-oxadiazol-5-yl]-3,4-dihydrospiro[1-benzopyran-2,1′-cyclohexane]-4-one]
- Emax [1]: < 75%
- hS1P1 B-arrestin2 pEC50 [1]: <5
- Emax [2]: < 75%
- hS1P1 cAMP pEC50 [2]: <6.5

SMILES: COc1ccc(-c2noc(-c3ccc4c(c3)nnn4C3CCCCC3)n2)cc1C(F)(F)F [Compound 284, 1-cyclohexyl-5-{3-[4-methoxy-3-(trifluoromethyl)phenyl]-1,2,4-oxadiazol-5-yl}-1H-1,2,3-benzotriazole]
- Emax [1]: < 75%
- hS1P1 B-arrestin2 pEC50 [1]: <5
- Emax [2]: < 75%
- hS1P1 cAMP pEC50 [2]: <6.5

SMILES: c1ccc(Oc2ccc(-c3noc(-c4ccc5c(c4)nnn5C4CC4)n3)cc2)cc1 [Compound 285, 1-cyclopropyl-5-[3-(4-phenoxyphenyl)-1,2,4-oxadiazol-5-yl]-1H-1,2,3-benzotriazole]
- Emax [1]: < 75%
- hS1P1 B-arrestin2 pEC50 [1]: <5
- Emax [2]: < 75%
- hS1P1 cAMP pEC50 [2]: <6.5

SMILES: Cc1ccccc1-c1noc(-c2ccc3c(c2)nnn3CC2CC2)n1 [Compound 288, 1-(cyclopropylmethyl)-5-[3-(2-methylphenyl)-1,2,4-oxadiazol-5-yl]-1H-1,2,3-benzotriazole]
- Emax [1]: < 75%
- hS1P1 B-arrestin2 pEC50 [1]: <5
- Emax [2]: < 75%
- hS1P1 cAMP pEC50 [2]: <6.5

SMILES: CC(C)Cn1nnc2cc(-c3nc(-c4ccccc4Cl)no3)ccc21 [Compound 289, 5-[3-(2-chlorophenyl)-1,2,4-oxadiazol-5-yl]-1-(2-methylpropyl)-1H-1,2,3-benzotriazole]
- hS1P1 B-arrestin2 pEC50 [1]: <5
- hS1P1 cAMP pEC50 [2]: <6.5

SMILES: CC(C)n1nnc2cc(-c3noc(-c4ccc(C5CCCCC5)cc4)n3)ccc21 [Compound 290, 5-(4-cyclohexylphenyl)-3-(1-isopropyl-1H-benzo[d][1,2,3]triazol-5-yl)-1,2,4-oxadiazole]
- Emax [1]: < 75%
- hS1P1 B-arrestin2 pEC50 [1]: <5
- Emax [2]: < 75%
- hS1P1 cAMP pEC50 [2]: <6.5

SMILES: c1ccc(-c2noc(-c3ccc4c(c3)nnn4C3CCCCC3)n2)cc1 [Compound 292, 1-cyclohexyl-5-(3-phenyl-1,2,4-oxadiazol-5-yl)-1H-1,2,3-benzotriazole]
- Emax [1]: < 75%
- hS1P1 B-arrestin2 pEC50 [1]: <5
- Emax [2]: < 75%
- hS1P1 cAMP pEC50 [2]: <6.5

SMILES: CC(C)n1nnc2cc(-c3nc(-c4ccccc4)co3)ccc21 [Compound 294, 5-(4-phenyl-1,3-oxazol-2-yl)-1-(propan-2-yl)-1H-1,2,3-benzotriazole]
- Emax [1]: > 75%
- hS1P1 B-arrestin2 pEC50 [1]: <5
- Emax [2]: < 75%
- hS1P1 cAMP pEC50 [2]: <6.5

SMILES: c1cc(-c2noc(-c3ccc4c(c3)nnn4C3CC3)n2)ccn1 [Compound 295, 1-cyclopropyl-5-[3-(pyridin-4-yl)-1,2,4-oxadiazol-5-yl]-1H-1,2,3-benzotriazole]
- Emax [1]: < 75%
- hS1P1 B-arrestin2 pEC50 [1]: <5
- Emax [2]: > 75%
- hS1P1 cAMP pEC50 [2]: <6.5

SMILES: CC(C)n1nnc2cc(-c3nc(-c4ccc(OCc5ccccc5)c(C(F)(F)F)c4)no3)ccc21 [Compound 296, 5-{3-[4-(benzyloxy)-3-(trifluoromethyl)phenyl]-1,2,4-oxadiazol-5-yl}-1-(propan-2-yl)-1H-1,2,3-benzotriazole]
- Emax [1]: < 75%
- hS1P1 B-arrestin2 pEC50 [1]: <5
- Emax [2]: < 75%
- hS1P1 cAMP pEC50 [2]: <6.5

SMILES: CC(C)n1nnc2cc(-c3nc4c(o3)-c3ccccc3CC4)ccc21 [Compound 297, 5-{4H,5H-naphtho[2,1-d][1,3]oxazol-2-yl}-1-(propan-2-yl)-1H-1,2,3-benzotriazole]
- Emax [1]: > 75%
- hS1P1 B-arrestin2 pEC50 [1]: <5
- Emax [2]: > 75%
- hS1P1 cAMP pEC50 [2]: <6.5

The next lines start with the values.

- Emax [1]: > 75%
- hS1P1 B-arrestin2 pEC50 [1]: <5
- Emax [2]: > 75%
- hS1P1 cAMP pEC50 [2]: <6.5
SMILES: CC(C)n1nnc2cc(-c3noc(-c4ccccc4C#N)n3)ccc21 [Compound 279, 2-(3-(1-isopropyl-1H-benzo[d][1,2,3]triazol-5-yl)-1,2,4-oxadiazol-5-yl)benzonitrile]

- Emax [1]: < 75%
- hS1P1 B-arrestin2 pEC50 [1]: <5
- Emax [2]: < 75%
- hS1P1 cAMP pEC50 [2]: <6.5
SMILES: COc1cc(-c2noc(-c3ccc4c(c3)nnn4C3CCCC3)n2)ccn1 [Compound 281, 1-cyclopentyl-5-[3-(2-methoxypyridin-4-yl)-1,2,4-oxadiazol-5-yl]-1H-1,2,3-benzotriazole]

- Emax [1]: > 75%
- hS1P1 B-arrestin2 pEC50 [1]: >5
- Emax [2]: > 75%
- hS1P1 cAMP pEC50 [2]: >6.5
SMILES: CC(C)n1nnc2cc(-c3nc(-c4ccccc4Br)no3)ccc21 [Compound 282, 5-[3-(2-bromophenyl)-1,2,4-oxadiazol-5-yl]-1-(propan-2-yl)-1H-1,2,3-benzotriazole]

- Emax [1]: < 75%
- hS1P1 B-arrestin2 pEC50 [1]: <5
- Emax [2]: < 75%
- hS1P1 cAMP pEC50 [2]: <6.5
SMILES: Brc1ccccc1-c1nc(-c2ccc3c(c2)nnn3Cc2cccnc2)no1 [Compound 283, 5-(2-bromophenyl)-3-(1-(pyridin-3-ylmethyl)-1H-benzo[d][1,2,3]triazol-5-yl)-1,2,4-oxadiazole]

- Emax [1]: > 75%
- hS1P1 B-arrestin2 pEC50 [1]: >5
- Emax [2]: > 75%
- hS1P1 cAMP pEC50 [2]: >6.5
SMILES: COc1ccccc1-c1noc(-c2ccc3c(c2)nnn3C(C)C)n1 [Compound 286, 5-(1-isopropyl-1H-benzo[d][1,2,3]triazol-5-yl)-3-(2-methoxyphenyl)-1,2,4-oxadiazole]

- Emax [1]: < 75%
- hS1P1 B-arrestin2 pEC50 [1]: <5
- Emax [2]: < 75%
- hS1P1 cAMP pEC50 [2]: <6.5
SMILES: CC1(C)CC(=O)c2cc(-c3nc(-c4ccncc4)no3)ccc2O1 [Compound 291, 2,2-dimethyl-6-[3-(pyridin-4-yl)-1,2,4-oxadiazol-5-yl]-3,4-dihydro-2H-1-benzopyran-4-one]
